Series [1] relates to Delayed-Type Hypersensitivity (DTH) to sheep red blood cells (SRBC). Kind of series: Suppression of delayed-type hypersensitivity (SRBC footpad swelling). Type of series: in vivo, mouse. Conditions: for inhibition in vivo at 1 mg: Erythrocyte; for suppression of DTH reaction: anti-inflammatory drugs and protease-inhibitors, 1 mg./mouse. On the procedure: The compounds of Formula (I) show suppression of various delayed-type hypersensitivity. In reference to the method by Lagrange [J. Exp. Med. 139, 528 (1974)], 10^8 sheep red blood cells (SRBC) without adjuvant were subcutaneously injected into the mouse hind footpad to immunize the animal. Four days later the animals were challenged by subcutaneous injection of 10^8 SRBC into another footpad. DTH response was measured as the increase in the thickness of footpad 24 hours after the injection of SRBC.
Varying doses of Compound-1 were administered orally or intraperitoneally either at the time of immunization (day 0) or challenge (day 4).
In FIG. 1 the ordinate indicates the swelling (× 0.1 mm.) of mice footpads on day 5 and the abscissa indicates the dose of Compound-1 per mouse administered by the oral (right) and intraperitoneal (left) routes. Solid line curve indicates the relationship when Compound-1 was administered on day 0 and the dotted line curve indicates the relationship when given on day 4.
The compounds were administered intraperitoneally in a dose 1 mg./mouse at the time of immunization (day 0) or challenge (day 4). Table 1 includes the results of humoral antibody response described later.

Series [2] concerns primary antibody formation to sheep red blood cells (SRBC), spleen cells. Kind of series: Suppression of primary antibody formation (plaque forming cells, Jerne's method). The following applies: for inhibition in vivo at 1 mg: Erythrocyte, ip, 96 h, read-out: Suppression, Plaque Forming Cells (suppression rate of primary antibody formation). In kind it is in vivo, mice (ddY-strain).
Experimental: 10^8 sheep red blood cells (SRBC) were injected intravenously into ddY-strain mice to immunize the animals, when the compounds of Formula (I) were administered intraperitoneally.
Each compound was administered intraperitoneally in the dosage of 1 mg./mouse.

Series [3] is described as follows: Acute toxicity, intraperitoneal. The following applies: mouse, in vivo, ip, mice, read-out: LD50 (approximate). Here is the method: Acute toxicological studies were carried out on mice by intraperitoneal administration of the compounds of Formula (I). The approximate LD50 values for representative compounds are given as follows: […]
For series [4], the system named is passive cutaneous anaphylaxis (PCA). Nature of the series: Suppression of passive cutaneous anaphylaxis (PCA). In kind it is in vivo, guinea pigs. The following applies: oral 100 mg./kg.; dilution giving a 10 mm. diameter blue zone; control 1060. On the procedure: The compounds of Formula (I) are active in suppressing passive cutaneous anaphylaxis (PCA) in guinea pigs. Guinea pigs received intradarmally serial dilutions of antiserum (0.1 ml.), which was obtained from guinea pigs immunized with a mixture of egg albumin and Freund's complete adjuvant. At the time of sensitization with antiserum, the compound of Formula (I) was administered either orally (100 mg./kg.) or intraperitoneally (50 mg./kg.).
Four hours later the animals were challenged by intravenous injection of a mixture of 5 mg. egg albumin and Evans blue dye. The reaction was measured 30 minutes later by the blue zone which emerged at the point of antiserum injection.

The subject of series [5] is carrageenin-induced edema. The following applies: 1 mg./mouse; cited from earlier work.
Setting [6] is: 96 h, 1 mg./mouse i.p., at challenge (day 4), read-out: Suppression, Delayed-Type Hypersensitivity, Administered at Induction (suppression rate).
Where [7] appears, read: ip, 0 h, 1 mg./mouse i.p., at immunization (day 0), read-out: Suppression, Delayed-Type Hypersensitivity, Administered at Immunization (suppression rate).

Like-named read-outs stand apart in the source and are kept apart here. Where only a bound is given, the exact number is not on record here.

For orientation: LD50 means the dose at which mortality reaches 50%.

With `COc1c(Cl)cc(NC(=O)c2ccccc2O)cc1Cl` [Compound 3], the figures for the inhibition in vivo at 1 mg in series [1] (setting [6]), in series [1] (setting [7]) and in series [2] (1 mg./mouse i.p.) were more than 75%, 0 to 25% and 50 to 75%, respectively.
The like results for `CCC(=O)Oc1ccccc1C(=O)Nc1cc(Cl)c(OC(=O)CC)c(Cl)c1` [Compound 5] were, in that order, more than 75%, 0 to 25% and 50 to 75%.
As to `O=C(Oc1ccccc1C(=O)Nc1cc(Cl)c(OC(=O)c2ccccc2)c(Cl)c1)c1ccccc1` [Compound 6], the inhibition in vivo at 1 mg in series [1] (setting [6]) is more than 75%; in series [1] (setting [7]), 0 to 25%; in series [2] (1 mg./mouse i.p.), more than 75%. Besides, in series [3], the LD50 came out at 2800 mg/kg.
As to `CC(=O)Oc1ccccc1C(=O)Nc1cc(Cl)cc(Cl)c1OC(C)=O` [Compound 7], the inhibition in vivo at 1 mg in series [1] (setting [6]) was more than 75%; in series [1] (setting [7]), 0 to 25%; in series [2] (1 mg./mouse i.p.), 50 to 75%. The LD50 in series [3] was more than 3000 mg/kg.
Consider `CC(=O)Oc1ccccc1C(=O)Nc1cc(Cl)c(O)c(Cl)c1` [Compound 8], for which the inhibition in vivo at 1 mg in series [1] (setting [6]) was 0 to 25%; in series [1] (setting [7]), 0 to 25%; in series [2] (1 mg./mouse i.p.), 25 to 50%.
With `O=C(O)COc1c(Cl)cc(NC(=O)c2ccccc2O)cc1Cl` [Compound 9], the figures for the inhibition in vivo at 1 mg in series [1] (setting [6]), in series [1] (setting [7]) and in series [2] (1 mg./mouse i.p.) were more than 75%, 0 to 25% and 0 to 25%, respectively.
As for `O=C(Nc1cc(Cl)c(O)c(Cl)c1)c1ccc(F)cc1O` [Compound 10], the results for the inhibition in vivo at 1 mg in series [1] (setting [6]), in series [1] (setting [7]) and in series [2] (1 mg./mouse i.p.) were more than 75%, 0 to 25% and 25 to 50%, respectively.
As to `Cc1ccc(C(=O)Nc2cc(Cl)c(O)c(Cl)c2)c(O)c1` [Compound 11], the figures for the inhibition in vivo at 1 mg in series [1] (setting [6]), in series [1] (setting [7]) and in series [2] (1 mg./mouse i.p.) were 0 to 25%, more than 75% and 25 to 50%, respectively.
With `O=C(Nc1cc(Br)cc(Br)c1O)c1ccccc1O` [Compound 13], the inhibition in vivo at 1 mg in series [1] (setting [6]) lay within 50 to 75%; in series [1] (setting [7]), 50 to 75%; in series [2] (1 mg./mouse i.p.), 0 to 25%. The LD50 in series [3] was 1280 mg/kg.
On to `CCOc1c(Br)cc(NC(=O)c2ccccc2O)cc1Br` [Compound 14], for which the inhibition in vivo at 1 mg was more than 75% in series [1] (setting [6]), 50 to 75% in series [1] (setting [7]) and 0 to 25% in series [2] (1 mg./mouse i.p.).
`CCC(=O)Oc1ccccc1C(=O)Nc1cc(Br)cc(Br)c1OC(=O)CC` [Compound 15]: the figures for the inhibition in vivo at 1 mg in series [1] (setting [6]), in series [1] (setting [7]) and in series [2] (1 mg./mouse i.p.) were 50 to 75%, 50 to 75% and 0 to 25%, respectively. The LD50 in series [3] came to 2200 mg/kg.
`Cc1ccc(C(=O)Nc2cc(Br)c(O)c(Br)c2)c(O)c1` [Compound 16]: the results for the inhibition in vivo at 1 mg in series [1] (setting [6]), in series [1] (setting [7]) and in series [2] (1 mg./mouse i.p.) were more than 75%, 50 to 75% and 0 to 25%, respectively.
On to `O=C(Nc1cc(F)c(O)c(Cl)c1)c1ccccc1O` [Compound 17], for which the inhibition in vivo at 1 mg in series [1] (setting [6]) was more than 75%; in series [1] (setting [7]), 0 to 25%; in series [2] (1 mg./mouse i.p.) it was more than 75%.
For the molecule `COc1c(F)cc(NC(=O)c2ccc(Cl)cc2O)cc1Cl` [Compound 18], the results for the inhibition in vivo at 1 mg in series [1] (setting [6]), in series [1] (setting [7]) and in series [2] (1 mg./mouse i.p.) were more than 75%, 0 to 25% and 25 to 50%, respectively.
As to `Cc1cc(Cl)cc(NC(=O)c2ccccc2O)c1O` [Compound 19], the figures for the inhibition in vivo at 1 mg in series [1] (setting [6]), in series [1] (setting [7]) and in series [2] (1 mg./mouse i.p.) were 25 to 50%, 0 to 25% and 25 to 50%, respectively. In addition, in series [3], the LD50 amounted to 1800 mg/kg.
Turning to `Cc1cc(Cl)c(O)c(NC(=O)c2ccccc2O)c1` [Compound 20], the inhibition in vivo at 1 mg is more than 75% in series [1] (setting [6]), 0 to 25% in series [1] (setting [7]) and 50 to 75% in series [2] (1 mg./mouse i.p.).
On to `O=C(Nc1cc([N+](=O)[O-])cc([N+](=O)[O-])c1O)c1ccccc1O` [Compound 21], for which the inhibition in vivo at 1 mg in series [1] (Mus musculus, 96 h, read-out: Suppression, Delayed-Type Hypersensitivity, Administered at Induction (suppression rate)) was more than 75%; in series [1] (Mus musculus, ip, 0 h, read-out: Suppression, Delayed-Type Hypersensitivity, Administered at Immunization (suppression rate)) it was 50 to 75%; in series [2] (Mus musculus), 0 to 25%.
As for `O=C(Nc1ccc(O)c(Cl)c1)c1ccccc1O` [Compound 22], the figures for the inhibition in vivo at 1 mg in series [1] (setting [6]), in series [1] (setting [7]) and in series [2] (1 mg./mouse i.p.) were 0 to 25%, 0 to 25% and more than 75%, respectively.
Regarding `O=C(Nc1cccc(Cl)c1O)c1ccccc1O` [Compound 23], the inhibition in vivo at 1 mg in series [1] (setting [6]) lay in the range of 0 to 25%; in series [1] (setting [7]), 0 to 25%; in series [2] (1 mg./mouse i.p.), 50 to 75%. In addition, the LD50 in series [3] worked out at 1550 mg/kg.
As to `CCOc1ccc(NC(=O)c2ccc(F)cc2O)cc1Cl` [Compound 24], the inhibition in vivo at 1 mg is 50 to 75% in series [1] (setting [6]), 0 to 25% in series [1] (setting [7]) and 25 to 50% in series [2] (1 mg./mouse i.p.).
`CC(=O)Oc1ccccc1C(=O)Nc1cccc(Cl)c1OC(C)=O` [Compound 25]: the inhibition in vivo at 1 mg was in the range of 25 to 50% in series [1] (setting [6]), 0 to 25% in series [1] (setting [7]) and 50 to 75% in series [2] (1 mg./mouse i.p.). Besides, the LD50 in series [3] came out at 2500 mg/kg.
For the molecule `O=C(Nc1ccc(O)cc1)c1ccccc1O` [Compound 26], the inhibition in vivo at 1 mg was 50 to 75% in series [1] (setting [6]), 0 to 25% in series [1] (setting [7]) and 50 to 75% in series [2] (1 mg./mouse i.p.).
On to `COc1ccc(NC(=O)c2ccc(F)cc2O)cc1` [Compound 28], for which the inhibition in vivo at 1 mg in series [1] (setting [6]) was more than 75%; in series [1] (setting [7]), 0 to 25%; in series [2] (1 mg./mouse i.p.), more than 75%. The LD50 in series [3] was 2800 mg/kg.
Regarding `CCOc1ccc(NC(=O)c2ccc(F)cc2O)cc1` [Compound 31], the inhibition in vivo at 1 mg in series [1] (setting [6]) was more than 75%; in series [1] (setting [7]), 0 to 25%; in series [2] (1 mg./mouse i.p.) it was 50 to 75%.
Take `COc1ccc(NC(=O)c2ccc(C)cc2OC(C)=O)cc1` [Compound 32]: the “Suppression, Delayed-Type Hypersensitivity, Administered at Induction (suppression rate)” value in series [1] (1 mg./mouse i.p., at challenge (day 4)) is listed as “+ (25 - 50%+-)”. Further, the “Suppression, Delayed-Type Hypersensitivity, Administered at Immunization (suppression rate)” value in series [1] (1 mg./mouse i.p., at immunization (day 0)) is given as “- (0 - 25% +-)”. In series [2] (1 mg./mouse i.p.), the “Suppression, Plaque Forming Cells (suppression rate of primary antibody formation)” value was “- (0 - 25% +-)”.
As to `CC(=O)Oc1ccccc1C(=O)Nc1cc(Cl)c(OC(C)=O)c(Cl)c1` [Compound-4, 2,4'-Diacetoxy-3',5'-dichlorobenzanilide], the inhibition in vivo at 1 mg in series [1] (setting [6]) is more than 75%; in series [1] (setting [7]), 0 to 25%; in series [2] (1 mg./mouse i.p.) it was 50 to 75%.
As for `O=C(Nc1cc(Br)c(O)c(Br)c1)c1ccccc1O` [Compound-12, 3',5'-Dibromo-2,4'-dihydroxybenzanilide], the values for the inhibition in vivo at 1 mg in series [1] (setting [6]), in series [1] (setting [7]) and in series [2] (1 mg./mouse i.p.) were 50 to 75%, more than 75% and 0 to 25%, respectively. Further, the “Max. Dilution of Antiserum, Oral” value in series [4] was 548. Moreover, the LD50 in series [3] is 1100 mg/kg.
For `COc1ccc(NC(=O)c2ccccc2O)cc1` [Compound-27, 2-Hydroxy-4'-methoxybenzanilide], the inhibition in vivo at 1 mg in series [1] (setting [6]) was more than 75%; in series [1] (setting [7]), 0 to 25%; in series [2] (1 mg./mouse i.p.), more than 75%. Moreover, the “Max. Dilution of Antiserum, Oral” value in series [4] is listed as 284. For the same molecule, in series [3], the LD50 was more than 3000 mg/kg.
Consider `COc1ccc(NC(=O)c2ccc(C)cc2O)cc1` [Compound-29, 2-Hydroxy-4-methyl-4'-methoxybenzanilide], for which the inhibition in vivo at 1 mg in series [1] (setting [6]) was more than 75%; in series [1] (setting [7]) it was 0 to 25%; in series [2] (1 mg./mouse i.p.), 25 to 50%. Moreover, in series [3], the median lethal dose (LD50) is 2500 mg/kg.
As to `CC(=O)Oc1ccccc1C(=O)O` [aspirin, reference compound], in series [1], the “suppression of DTH reaction” value was “little suppression of this DTH reaction”. For the same molecule, the “suppression of carrageenin-induced edema” value in series [5] is “strongly suppress carrageenin-induced edema”.
As to `CC(C)C[C@H](NC(=O)[C@@H](NC(=O)N[C@@H](Cc1ccccc1)C(=O)O)[C@@H]1CCN=C(N)N1)C(=O)N[C@H](C=O)Cc1ccccc1` [chymostatin, reference compound], the “suppression of DTH reaction” value in series [1] is on record as “little suppression of this DTH reaction”. Also, in series [5], the “suppression of carrageenin-induced edema” value was “strongly suppress carrageenin-induced edema”.
